Data set [1] can be described thus: ABTS radical scavenging assay. The following applies: 1 mg/mL, 734 nm. Here is the method: The radical scavenging properties of the newly synthesized structures were also calculated with the help of a ABTS test according to a modified method of Arnao et al.. The tests were conducted in methanol at room temperature. The absorbance of the solutions was measured at λ = 734 nm. The stable ABTS radical was produced by mixing 7 mmol/L solution of ABTS and 2.4 mmol/L solution of potassium persulphate, which were allowed to react for 14 h in the dark at room temperature. The working solutions were made of 2 mL of the stock solution diluted in 50 mL of methanol with an absorbance of 0.30 ± 0.04 units at […]. In total, 1 mL of the ABTS working solution was allowed to react with the pyrrole derivatives with concentrations of 1 mg/mL for 10 min. The inhibition percentage was calculated by applying the same formula as the DPPH assay.

In the next data set the target is T1, human recombinant MAOB (Homo sapiens, UniProt P27338).
T1 sequence (P27338 1-520): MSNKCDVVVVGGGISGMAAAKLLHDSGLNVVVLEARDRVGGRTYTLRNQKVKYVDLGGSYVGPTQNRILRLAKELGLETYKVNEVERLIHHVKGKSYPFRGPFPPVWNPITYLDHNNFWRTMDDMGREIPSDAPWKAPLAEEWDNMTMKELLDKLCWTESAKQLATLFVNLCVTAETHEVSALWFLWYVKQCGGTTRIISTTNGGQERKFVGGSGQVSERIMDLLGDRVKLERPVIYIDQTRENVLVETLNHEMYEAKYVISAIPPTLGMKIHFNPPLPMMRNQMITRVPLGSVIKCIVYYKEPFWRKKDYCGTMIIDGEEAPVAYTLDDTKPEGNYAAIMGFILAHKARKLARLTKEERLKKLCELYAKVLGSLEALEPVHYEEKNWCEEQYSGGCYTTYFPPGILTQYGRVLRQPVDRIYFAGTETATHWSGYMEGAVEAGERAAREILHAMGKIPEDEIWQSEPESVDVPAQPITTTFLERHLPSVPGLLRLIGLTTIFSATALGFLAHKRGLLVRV
The data set can be described thus: biochemical. It counts as biochemical. To be noted: for IC50: mean ± SD, 2 h exposure, read-out: IC50 (EC50) hMAOB; for hMAOB inhibition (decrease of hMAOB activity vs control): 1 μM. Here is the method: The title compounds were tested for hMAOB activities by an in vitro method.
(§1) The examined compounds were evaluated for possible inhibitory capacity on human recombinant MAOA and MAOB enzymes by using the Amplex UltraRed (Sigma Aldrih and Acros, Merck KGaA, Darmstadt, Germany) reagent with some modifications. All reagents were prepared in accordance with the producer’s instructions. As a substrate the tyramine hydrochloride was used for hMAO-B and p-benzylamine for hMAO-A. The reaction mixture included a stock solution of Amplex Red, the reaction buffer at pH 7.4 and the storage solution of horseradish peroxidase (10 U/mL). Five concentrations of the exam compounds were applied. The combination: compounds + hMAOA/B was placed in a 96-well plate, and then the plate was incubated for 30 min (dark, at 37 °C). The reaction was started by the addition of 50 μL of the mix solution: Amplex Red, horseradish peroxidase, and tyramine/p-benzylamine, as an enzyme substrate, in the reaction buffer. The fluorescence was measured every 30 min until 150 min, in dark, while shaking the reaction mixture at constant temperature of 37 °C. The fluorimetric measurements were assessed using a Synergy 2 Microplate Reader (BioTek, Winooski, VT, USA).
(§2) The in vitro results (MAO-A, MAO-B and AChE inhibitory capacities) were expressed as a mean ± SD (n = 3). Values of p < 0.05 were considered statistically significant.

Another data set addresses T2, human recombinant MAOA (Homo sapiens, UniProt P21397).
T2 sequence (P21397 1-527): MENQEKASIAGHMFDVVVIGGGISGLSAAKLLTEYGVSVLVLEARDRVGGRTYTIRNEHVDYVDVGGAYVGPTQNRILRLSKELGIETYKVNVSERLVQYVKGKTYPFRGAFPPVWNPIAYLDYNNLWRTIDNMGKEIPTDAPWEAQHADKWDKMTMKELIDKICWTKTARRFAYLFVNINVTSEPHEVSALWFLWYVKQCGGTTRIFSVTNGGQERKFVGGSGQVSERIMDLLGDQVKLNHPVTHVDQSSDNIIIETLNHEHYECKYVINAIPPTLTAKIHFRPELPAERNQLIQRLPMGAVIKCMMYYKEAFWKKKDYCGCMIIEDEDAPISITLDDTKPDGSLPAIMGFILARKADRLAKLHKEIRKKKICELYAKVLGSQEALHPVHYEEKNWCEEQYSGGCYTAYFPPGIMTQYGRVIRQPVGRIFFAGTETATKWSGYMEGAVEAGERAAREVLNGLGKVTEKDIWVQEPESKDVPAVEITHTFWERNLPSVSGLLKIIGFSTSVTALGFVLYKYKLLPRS
The data set can be described thus: hMAOA enzyme assay (Amplex UltraRed, fluorimetric). It counts as biochemical. To be noted: mean ± SD; read-out: IC50 (EC50) hMAOA. As to the method:
To observe the selectivity index of the title compounds, in vitro tests against MAO-A were carried out. The novel molecules were tested in the same concentrations as applied in the MAO-B evaluations—1 μM.
as §1, §2

The target of the next data set is eeAChE (Electrophorus electricus, UniProt O42275). The data set can be described thus: biochemical. The following applies: for AChE inhibition / inhibition at 10 µM: 10 μM; for inhibition at 10 µM: read-out: AChE inhibition; for IC50 / IC50 (EC50) AChE: mean ± SD; for IC50: read-out: IC50 (EC50) AChE. Here is the method:
The AChE potentials of the new valine-based molecules were evaluated according to a modified Ellman’s method. Initially, stock solutions (1 mg/mL) of the new structures were diluted in DMSO and five solutions were prepared by dilutions in order to access the inhibitory potential in different concentrations. Thereafter, the pyrrole-based molecules were incubated with sodium phosphate buffer, and AChE solution for ten minutes at 37 °C. The reaction was started by the addition of 5,5-dithio-bis-(2-nitrobenzoic acid) (DTNB) (10 mM; 20 μL) and acetylthiocholine iodide (14 mM; 20 μL). […] The percent inhibition activity was measured against the blank probe. Donepezil was utilized as a standart acetylcholinesterase inhibitor. The results were expressed as a mean ± SD (n = 3). Values of p < 0.05 were observed as statistically significant.
as §2

Data set [2] in a line: PAMPA-BBB permeability test. Here is the method: Thus, the passive diffusion of vh0 was evaluated using an in vitro permeability test.
The in vitro Parallel Artificial Permeability Assay—blood brain barrier (PAMPA-BBB) test was carried out by PAMPA Permeability Analyzer (pIONInc, Billerica, MA, USA). The permeabilities (Pe) of the dual-acting pyrrole-based hydrazide—vh0, were evaluated considering the manufacturer BBB Protocol. Initially, the stock solutions of vh0 and reference molecules were dissolved in DMSO and diluted with Prisma HT buffer pH 7.4 (Pion Inc. Billerica, MA, USA) to reach a concentration of 50 μM. The well plates were filled with 200 µL BSB (Brain Skin Buffer). The incubation was established for 4 h at 25 °C with no stirring. The permeability of the structures was evaluated by accessing their concentrations in both the donor and acceptor phases spectrophotometrically. The permeability coefficients were calculated by PAMPA Explorer Command Software and presented as –logPe.

For data set [3] the following is noted: cited from earlier work.
Data set [4] is described as follows: DPPH radical scavenging assay. To be noted: 1 mg/mL, 517 nm. As to the method:
The test observes the hydrogen donating capacity of the molecules which is shown with a decrease in the absorbance at 517 nm. The DPPH radical scavenging activity of the title hydrazide vh0 and hydrazide–hydrazones vh1-4 was determined in 1 mg/mL concentration with Trolox applied as a standard.
The radical scavenging activities of the title compounds were examined with a DPPH (2,2- diphenyl-1-picrylhydrazyl) test. A solution of DPPH has an intense violet color and a UV absorption at 515 nm could be observed. The presence of an antioxidant leads to visible decolorization of the sample and the absorption could be measured. Here, the scavenging rate of the DPPH radical was carried out by the widely employed classical protocol of Brand-Williams et al.. A 1 mg/mL of the title compounds were reacted with methonol solution of the DPPH (1 mmol/L). Thereafter, the obtained mixture was left in a dark palce for 15 min. The absorbance was assessed at 517 nm. Three measurements were conducted for each sample and Trolox was used as a standard.

Where “and” joins values, the source holds several entries; their conditions need not be identical. Identical values can stand only once. Counter-ions that a name gives are not always drawn.

Chain of eeAChE (O42275 24-633): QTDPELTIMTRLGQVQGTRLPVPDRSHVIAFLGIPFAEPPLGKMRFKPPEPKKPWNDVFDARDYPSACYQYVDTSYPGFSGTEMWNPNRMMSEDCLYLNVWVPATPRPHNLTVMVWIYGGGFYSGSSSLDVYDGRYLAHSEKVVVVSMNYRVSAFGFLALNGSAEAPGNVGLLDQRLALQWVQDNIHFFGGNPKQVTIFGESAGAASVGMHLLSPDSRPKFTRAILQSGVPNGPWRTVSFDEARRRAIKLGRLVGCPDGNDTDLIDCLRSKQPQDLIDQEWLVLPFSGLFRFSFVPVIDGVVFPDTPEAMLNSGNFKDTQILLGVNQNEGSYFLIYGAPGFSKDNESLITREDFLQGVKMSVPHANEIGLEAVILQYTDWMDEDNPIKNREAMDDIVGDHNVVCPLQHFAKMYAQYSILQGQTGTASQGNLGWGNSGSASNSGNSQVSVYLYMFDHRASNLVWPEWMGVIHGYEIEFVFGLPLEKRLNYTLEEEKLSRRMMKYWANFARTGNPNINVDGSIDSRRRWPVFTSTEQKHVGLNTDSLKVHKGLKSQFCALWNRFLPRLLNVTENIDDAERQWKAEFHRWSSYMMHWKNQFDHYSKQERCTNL

As for `CCOC(=O)c1cc(-c2ccc(Br)cc2)n(C(C(=O)N/N=C/c2ccc(OC)cc2)C(C)C)c1C` (stereo not drawn) [vh3], the ABTS radical-binding activity in data set [1] was 58.27%. Also, on human recombinant MAOB, the “SI: hMAOB selectivity index = IC50(hMAO-A)/IC50(hMAO-B)” value is on record as over 1 and the IC50 is over 100 µM. Besides, on human recombinant MAOA, the IC50 is over 100 µM. Besides, on eeAChE, the AChE inhibition result is “weak AChE blocking activity”, the inhibition at 10 µM stood at 26% and the IC50 came to 16.3 ± 2.15 µM.

Turning to `CC(C)NCC(O)COc1cccc2ccccc12` (stereo not drawn) [Propranolol HCl, propranolol hydrochloride, reference compound], the “PAMPA BBB −logPe” value in data set [2] (PAMPA, 4 h, 50 μM, pH 7.4) is recorded as 4.949 ± 0.003. Besides, the “PAMPA BBB −logPe Literature” value in data set [3] was 3.7.

In data set [1], `CCOC(=O)c1cc(-c2ccc(Br)cc2)n(C(C(=O)N/N=C/c2ccc(Cl)cc2)C(C)C)c1C` (stereo not drawn) [vh1] displayed an ABTS radical-binding activity of 73.67%. At human recombinant MAOB, the “SI: hMAOB selectivity index = IC50(hMAO-A)/IC50(hMAO-B)” value is on record as over 134, the “hMAOB inhibition (decrease of hMAOB activity vs control)” value is on record as “moderate activity” and the IC50 was 0.744 ± 0.18 µM. Moreover, on human recombinant MAOA, the IC50 is over 100 µM. Also, on eeAChE, the inhibition at 10 µM is 19% and the IC50 was 18.8 ± 0.91 µM.

`CCOC(=O)c1cc(-c2ccc(Br)cc2)n(C(C(=O)NN)C(C)C)c1C` (stereo not drawn) [vh0]: the “DPPH radical scavenging activity” value in data set [4] was 76.10%. In data set [1], this compound gave an ABTS radical-binding activity of 99.40%. Further, at human recombinant MAOB, the “SI: hMAOB selectivity index = IC50(hMAO-A)/IC50(hMAO-B)” value is over 150, the “hMAOB inhibition (decrease of hMAOB activity vs control)” value turned out to be 30% and the IC50 worked out at 0.665 ± 0.2 µM. Besides, the IC50 at human recombinant MAOA was over 100 µM. On eeAChE, the inhibition at 10 µM stood at 62% and the IC50 was 4.15 ± 1.31 µM. Moreover, the BBB permeability class result in data set [2] (PAMPA-BBB) is “medium (When 6 < –logPe < 5 the molecule is identified with a medium permeability)”. Besides, the “PAMPA BBB −logPe” value in data set [2] (pH 7.4, 50 μM, 4 h at 25 °C) was 5.451 and 5.451 ± 0.005.

As for `CCOC(=O)c1cc(-c2ccc(Br)cc2)n(C(C(=O)N/N=C/c2ccc(OC)cc2OC)C(C)C)c1C` (stereo not drawn) [vh4], the “SI: hMAOB selectivity index = IC50(hMAO-A)/IC50(hMAO-B)” value at human recombinant MAOB is reported as over 1. Besides, the IC50 on human recombinant MAOB, at human recombinant MAOA and at eeAChE was over 100 µM throughout. For the same compound, the “IC50 (EC50) AChE” value against eeAChE is “inactive”.

On to `Cc1c(C)c2c(c(C)c1O)CCC(C)(C(=O)O)O2` (stereo not drawn) [Trolox, reference compound], for which the “DPPH radical scavenging activity” value in data set [4] was determined as 90.07%. The ABTS radical-binding activity in data set [1] worked out at 100%.

In the case of `CCOC(=O)c1cc(-c2ccc(Br)cc2)n(C(C(=O)N/N=C/c2cccc(F)c2)C(C)C)c1C` (stereo not drawn) [vh2], at human recombinant MAOB, the “SI: hMAOB selectivity index = IC50(hMAO-A)/IC50(hMAO-B)” value is recorded as over 1 and the IC50 was over 100 µM. Further, the IC50 on human recombinant MAOA was over 100 µM. Besides, at eeAChE, the AChE inhibition result is on record as “weak AChE blocking activity”, the “IC50 (EC50) AChE” value was “inactive” and the IC50 is over 100 µM.

Values taken from publication PMC11435393, “Novel Pyrrole Derivatives as Multi-Target Agents for the Treatment of Alzheimer’s Disease: Microwave-Assisted Synthesis, In Silico Studies and Biological Evaluation” (Pharmaceuticals, 2024).
